In US5489604A, “2-saccharinylmethyl aryl and aryloxy acetates useful as proteolytic enzyme inhibitors and compositions and method of use thereof” (Sterling Winthrop, Inc., priority 1994, dated 1996):
pKi: −log10 of the molar value.

Biological target: T1, human leukocyte elastase (HLE) (Homo sapiens, UniProt P08246)
T1 sequence (P08246 30-267): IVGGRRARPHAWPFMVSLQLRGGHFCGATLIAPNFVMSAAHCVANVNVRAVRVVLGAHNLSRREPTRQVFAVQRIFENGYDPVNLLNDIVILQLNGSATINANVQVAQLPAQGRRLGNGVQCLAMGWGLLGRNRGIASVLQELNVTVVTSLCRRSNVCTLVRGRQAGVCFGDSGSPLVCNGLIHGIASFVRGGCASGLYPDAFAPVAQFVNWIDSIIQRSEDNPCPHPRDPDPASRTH
Assay: inhibition of human leukocyte elastase (HLE): rate of inactivation kon and inhibition constant Ki* (koff/kon)
Assay type: biochemical
Details: for pKi: not truly reversible, ratio of rate of reactivation to rate of inactivation of the enzyme, read-out: K*i (inhibition constant Ki * = koff /kon); for kon: rate of inactivation kon of enzymatic activity, values are Kon × 10^-3
Procedure: Thus, instead of measuring a Ki, a Ki * is calculated which is defined as the ratio of the koff /kon, the rate of reactivation of the enzyme to the rate of inactivation of the enzyme. The values of koff and kon are measured and Ki * is then calculated.
The rate of inactivation, kon, of enzymatic activity was determined for the compounds tested by measuring the enzyme activity of an aliquot of the respective enzyme as a function of time after addition of the test compound. […] The rate of inactivation is then equal to [formula] where [I] is the concentration of the inhibiting compound.
The reactivation constant, koff, is similarly determined, and the inhibition constant, Ki *, is then calculated as […]

| SMILES | pKi | kon |
| --- | --- | --- |
| CC(C)(C(=O)OCN1C(=O)c2ccccc2S1(=O)=O)c1ccccc1 [Example 1A] | 7.74 | 3500 M⁻¹ s⁻¹ |
| COC(C(=O)OCN1C(=O)c2c(C(C)C)cccc2S1(=O)=O)c1ccccc1 (stereo not shown) [Example 1H] | 9.52 | 80000 M⁻¹ s⁻¹ |
| COc1cc(C(C)C)c2c(c1)S(=O)(=O)N(COC(=O)C(C)(O)c1ccccc1)C2=O (stereo not shown) [Example 1J] | 9.92 | 77700 M⁻¹ s⁻¹ |
| CC(C)c1cccc2c1C(=O)N(COC(=O)C(C)(C)Oc1ccc(Cl)cc1)S2(=O)=O [Example 1E] | 9.22 | 38000 M⁻¹ s⁻¹ |
| COc1cc(C(C)C)c2c(c1)S(=O)(=O)N(COC(=O)[C@H](OC)c1ccccc1)C2=O [Example 1I] | 10.10 | 118000 M⁻¹ s⁻¹ |
| COc1cc(C(C)C)c2c(c1)S(=O)(=O)N(COC(=O)[C@@H](OC)c1ccccc1)C2=O [Example 1K] | 10.05 | 102000 M⁻¹ s⁻¹ |
| CC(C)c1cccc2c1C(=O)N(COC(=O)C(O)c1ccccc1)S2(=O)=O (stereo not shown) [Example 1G] | 9.59 | 88500 M⁻¹ s⁻¹ |
| CC(C)c1cccc2c1C(=O)N(COC(=O)C(C)(C)Oc1ccccc1Cl)S2(=O)=O [Example 1F] | 9.10 | 29000 M⁻¹ s⁻¹ |
| CC(C)c1cccc2c1C(=O)N(COC(=O)C(C)(C)c1ccccc1)S2(=O)=O [Example 1D] | 9.00 | 23000 M⁻¹ s⁻¹ |
| CC(C)(Oc1ccccc1Cl)C(=O)OCN1C(=O)c2ccccc2S1(=O)=O [Example 1C] | 7.84 | 4100 M⁻¹ s⁻¹ |
| CC(C)(Oc1ccc(Cl)cc1)C(=O)OCN1C(=O)c2ccccc2S1(=O)=O [Example 1B] | 7.84 | 4000 M⁻¹ s⁻¹ |
